Data reported in ChEMBL document CHEMBL3046132, “Design and synthesis of thienopyridines as novel templates for acetylcholinesterase inhibitors” (2013).

test system: Rattus norvegicus; experiment: In vivo inhibition of AchE in Wistar albino Rattus norvegicus (rat) brain at 10 mg/kg, po after 30 min relative to untreated control; format: functional; conditions: 0.5 h

Row | Structure (SMILES) | inhibition in vivo at 10 mg/kg
1 | O=C(CCCCC1CCSS1)NCCCNc1c2c(nc3sc4c(c13)CCCC4)CCCC2 (stereo not drawn) | 56.7%
2 | Nc1c2c(nc3ccccc13)CCCC2 [TACRINE] | 54.9%
3 | Cc1sc2nc3c(c(NCCCCNC(=O)CCCCC4CCSS4)c2c1C)CCCC3 (stereo not drawn) | 42.9%
4 | O=C1c2ccccc2C(=O)N1CCCCNc1c2c(nc3sc4c(c13)CCCC4)CCCC2 | 29.8%
5 | Cc1sc2nc3c(c(NCCCN4C(=O)c5ccccc5C4=O)c2c1C)CCCC3 | 46.2%
6 | Cc1sc2nc3c(c(NCCCCNc4c5c(nc6sc(C)c(C)c46)CCCC5)c2c1C)CCCC3 | 41.5%
7 | O=C1c2ccccc2C(=O)N1CCNCCCNc1c2c(nc3sc4c(c13)CCCC4)CCCC2 | 43.9%
8 | Cc1sc2nc3c(c(NCCCNc4c5c(nc6sc(C)c(C)c46)CCCC5)c2c1C)CCCC3 | 25.1%
9 | O=C1c2ccccc2C(=O)N1CCNCCCCNc1c2c(nc3sc4c(c13)CCCC4)CCCC2 | 45%
10 | C(CCNc1c2c(nc3sc4c(c13)CCCC4)CCCC2)CNc1c2c(nc3sc4c(c13)CCCC4)CCCC2 | 35.7%
11 | Cc1sc2nc3c(c(NCCCCN4C(=O)c5ccccc5C4=O)c2c1C)CCCC3 | 55.6%
12 | O=C(CCCCC1CCSS1)NCCCCNc1c2c(nc3sc4c(c13)CCCC4)CCCC2 (stereo not drawn) | 21.4%
13 | O=C1c2ccccc2C(=O)N1CCCNc1c2c(nc3sc4c(c13)CCCC4)CCCC2 | 42.7%
